Measurements from US20230210825A1, “METHODS AND COMPOSITIONS FOR TREATING SUBJECTS WITH METABOLIC DISORDERS AND CORONAVIRUS INFECTIONS” (CIRIUS THERAPEUTICS, INC., priority 2020, published 2023).

Experiments:
CYP2C8 = CYP2C8 (Homo sapiens, UniProt P10632)
PPARγ = molecular target: T1, PPARγ (Homo sapiens, UniProt P37231); experiment: Relative binding affinity for PPARγ (FIG. 1); settings: FIG. 1, relative binding affinity
T1 sequence (P37231 1-505): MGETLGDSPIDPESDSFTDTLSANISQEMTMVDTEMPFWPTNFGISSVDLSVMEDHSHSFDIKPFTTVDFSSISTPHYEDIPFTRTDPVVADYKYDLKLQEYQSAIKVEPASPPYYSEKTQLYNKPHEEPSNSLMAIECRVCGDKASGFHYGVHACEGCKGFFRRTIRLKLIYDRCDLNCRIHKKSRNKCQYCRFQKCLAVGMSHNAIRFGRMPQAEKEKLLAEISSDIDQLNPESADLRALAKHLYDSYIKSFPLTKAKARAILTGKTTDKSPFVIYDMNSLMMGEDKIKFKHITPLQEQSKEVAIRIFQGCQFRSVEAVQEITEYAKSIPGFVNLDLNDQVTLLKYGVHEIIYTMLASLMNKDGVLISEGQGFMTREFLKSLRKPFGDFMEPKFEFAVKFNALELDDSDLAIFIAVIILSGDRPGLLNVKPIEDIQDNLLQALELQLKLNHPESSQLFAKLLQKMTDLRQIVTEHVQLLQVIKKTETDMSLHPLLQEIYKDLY

[1] = metabolite share of combined exposure after MSDC-0602
[2] = molecular target: T2, organic anion transporter 3 (OAT3) (Homo sapiens, UniProt Q8TCC7); experiment: OAT3 inhibition
T2 sequence (Q8TCC7 1-542): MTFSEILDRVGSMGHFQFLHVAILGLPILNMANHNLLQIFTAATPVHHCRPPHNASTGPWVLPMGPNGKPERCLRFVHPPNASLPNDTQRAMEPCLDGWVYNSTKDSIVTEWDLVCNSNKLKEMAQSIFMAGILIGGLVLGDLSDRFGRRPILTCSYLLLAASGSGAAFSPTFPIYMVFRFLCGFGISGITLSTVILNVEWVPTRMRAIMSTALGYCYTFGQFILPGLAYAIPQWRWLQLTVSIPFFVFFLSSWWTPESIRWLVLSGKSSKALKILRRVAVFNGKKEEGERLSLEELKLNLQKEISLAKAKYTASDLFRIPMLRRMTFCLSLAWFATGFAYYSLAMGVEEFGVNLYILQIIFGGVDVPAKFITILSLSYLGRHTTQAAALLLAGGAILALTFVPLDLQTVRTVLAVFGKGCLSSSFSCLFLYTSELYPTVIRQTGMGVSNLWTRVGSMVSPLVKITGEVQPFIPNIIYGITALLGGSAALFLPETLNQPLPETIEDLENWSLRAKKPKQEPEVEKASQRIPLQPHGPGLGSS

[3] = molecular target: T3, mitochondrial pyruvate carrier (MPC) (Homo sapiens, UniProt O95563+Q9Y5U8); experiment: Relative binding affinity for the MPC (FIG. 2)
T3 sequence (Q9Y5U8 1-109): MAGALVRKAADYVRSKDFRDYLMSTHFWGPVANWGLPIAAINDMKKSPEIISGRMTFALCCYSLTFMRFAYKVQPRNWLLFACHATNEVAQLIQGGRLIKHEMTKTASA
T3 sequence (O95563 1-127): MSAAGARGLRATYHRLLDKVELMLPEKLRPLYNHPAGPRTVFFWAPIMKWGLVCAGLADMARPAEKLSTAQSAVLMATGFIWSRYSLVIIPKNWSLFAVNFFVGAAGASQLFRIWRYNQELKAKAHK

[4] = molecular target: multidrug resistance protein 1 (MDR1) (Homo sapiens, UniProt P08183); experiment: MDR1 inhibition
[5] = Earlier phase 2 trials: adiponectin at 28 days; parameters: species or system human; settings: in vivo
[6] = molecular target: T4, breast cancer-related protein (BCRP) (Homo sapiens, UniProt Q9UNQ0); experiment: BCRP inhibition; settings: not told
T4 sequence (Q9UNQ0 1-655): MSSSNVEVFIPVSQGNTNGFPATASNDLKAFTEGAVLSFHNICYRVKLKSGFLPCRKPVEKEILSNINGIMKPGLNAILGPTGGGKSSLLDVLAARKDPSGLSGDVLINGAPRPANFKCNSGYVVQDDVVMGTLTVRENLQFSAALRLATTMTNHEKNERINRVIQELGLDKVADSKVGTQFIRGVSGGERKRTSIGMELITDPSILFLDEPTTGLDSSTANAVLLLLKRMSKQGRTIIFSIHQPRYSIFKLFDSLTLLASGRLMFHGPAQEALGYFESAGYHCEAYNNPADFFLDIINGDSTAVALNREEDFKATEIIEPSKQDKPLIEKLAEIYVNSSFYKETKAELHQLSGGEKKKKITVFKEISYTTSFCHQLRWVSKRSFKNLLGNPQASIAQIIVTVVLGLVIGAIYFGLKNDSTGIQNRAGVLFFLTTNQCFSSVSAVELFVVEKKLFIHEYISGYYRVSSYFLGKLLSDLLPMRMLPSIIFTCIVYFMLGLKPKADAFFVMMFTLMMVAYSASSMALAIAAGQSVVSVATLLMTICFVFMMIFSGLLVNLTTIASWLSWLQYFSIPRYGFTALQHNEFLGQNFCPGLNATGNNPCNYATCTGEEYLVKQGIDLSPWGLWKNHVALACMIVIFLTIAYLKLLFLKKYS

[7] = tested on: mouse model of a metabolic disorder; settings: reported earlier; effects require MPC expression in hepatocytes; cited from earlier work

CYP2C8, sequence (P10632 whole entry): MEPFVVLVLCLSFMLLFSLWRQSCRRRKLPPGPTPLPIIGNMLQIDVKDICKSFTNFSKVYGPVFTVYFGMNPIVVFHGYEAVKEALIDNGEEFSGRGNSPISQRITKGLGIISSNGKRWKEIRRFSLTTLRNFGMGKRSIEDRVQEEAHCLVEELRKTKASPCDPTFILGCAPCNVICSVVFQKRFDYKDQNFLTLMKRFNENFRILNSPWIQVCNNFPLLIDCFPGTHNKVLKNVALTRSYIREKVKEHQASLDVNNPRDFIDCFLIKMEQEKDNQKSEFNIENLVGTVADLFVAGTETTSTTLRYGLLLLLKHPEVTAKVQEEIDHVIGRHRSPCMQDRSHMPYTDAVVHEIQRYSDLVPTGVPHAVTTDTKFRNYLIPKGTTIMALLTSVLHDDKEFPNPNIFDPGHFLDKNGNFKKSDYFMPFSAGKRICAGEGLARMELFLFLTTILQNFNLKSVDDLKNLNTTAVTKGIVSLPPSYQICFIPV

Structure (SMILES) | inhibition of CYP2C8 (CYP2C8) | reduction in binding affinity for PPARγ compared to pioglitazone (PPARγ) | share of the combined exposure [1] | inhibition of organic anion transporter 3 (OAT3) [2] | binding to the MPC [3] | inhibition of MDR1 [4] | increase in adiponectin levels [5] [%] | inhibition of BCRP [6] | damage caused to the liver [7]
COc1cccc(C(O)COc2ccc(CC3SC(=O)NC3=O)cc2)c1 (centres unmarked) [MSDC-0597] | weak inhibitor | more than fifty-fold | more than 90% | inhibitors | maintain, and in some cases improve, binding to the MPC |  |  |  | 
COc1cccc(C(=O)COc2ccc(CC3SC(=O)NC3=O)cc2)c1 (centres unmarked) [MSDC-0602] |  |  |  | inhibitors | maintain, and in some cases improve, binding to the MPC | inhibitor | 146 | inhibitor | prevents and reverses damage caused to the liver
